Where two headings read alike, the source gives them in different places. Each block holds one compound with its values, some of them ahead of it.
Experiments:
[1] = system: MFE296 human endometrial cancer cells; assay: Cell proliferation assay (CellTiter-Glo) in MFE296; format: cell-based; settings: for Amax: single agent
Protocol: (§1) Celt Proliferation Assay: Cell viability was determined by measuring cellular ATP content using the CellTiter-Glo® Luminescent Cell Viability Assay (Promega #G7573) according to manufacturer's protocol. Briefly, 1500-50000 cells were plated on either 384 or 96 well plates in 30 μl (384 well) or 100 μl (96 well) growth media, cells were: allowed to attach overnight and followed by 72 hrs of incubation with various concentration of drugs or drug combinations (10 μl per well in 384 well plates), at the end of the drug treatment, 30 μl of the CellTiter-Glo regent were added to each well (384 well plates) to lyse the cell, and luminescence signals were recorded on a Envision plate reader.
(§2) Method for calculating the effect of the Combination: To evaluate the everolimus and Compound A combination effect in a non-bias way and to identify synergistic effect at all possible concentrations, the combination studies were conducted with a “dose matrix”, where a combination is tested in all possible permutations of serially-diluted everolimus and Compound A single agent doses, in all combination assays, compounds were applied simultaneously. Single agent dose responding curves, IC50, IC90, and the Synergy are all analyzed using Chalice software (CombinatoRx, Cambridge, Mass.). Synergy was calculated by comparing a combination's response to those of its single agents, against the drug-with-itself dose-additive reference model. Deviations from dose additivity can be assessed visually on an Isobologram or numerically With a Combination Index. Excess inhibition compare to additivity can also be plotted as a full dose-matrix chart to capture where the synergies occur. To quantify the overall strength of combination effects, a volume score VHSA=ΣXYInfXInfY(Idata−IHSA) is also calculated between the data and the highest-single-agent surface, normalized for single agent dilution factors fX,fY[ref].
The experiment setup is identical to the p4EBP1 assay as described above for the MFE296 cancer cell model. (FIG. 8). And the same “dose matrix” (everolimus: 11 dose, 4', 500 nM to 0.5 pM, Compound A; 9 dose, 4×, 1 μM to 16 nM) was applied.

[2] = system: AN3 CA human endometrial cancer cells; assay: Cell proliferation assay (CellTiter-Glo) in AN3 CA; format: cell-based
Protocol: as §1, §2
The cells were plated at 1500 cells/well in 384 well plates in quadruplicates, and treated with compound for 72 hrs before the measurement (FIG. 9). The following “dose matrix”, everolimus: 11 dose, 4×, 500 nM to 0.5 pM, Compound A: 9 dose, 4×, 1 μM to […], was applied.

[3] = system: GA-10 human Non-Hodgkin's Lymphoma cancer cells; assay: Cell proliferation assay (CellTiter-Glo) in GA-10; format: cell-based
Protocol: as §1, §2
The cells were plated at 50000 cells/well in 96 well plates in triplicate, and treated with compound for 72 hrs prior to the measurement (FIG. 10). The following “dose matrix”, everolimus: 8 dose, 3×, 500 nM to 0.23 nM, Compound A: 8 dose, 2×, 1 μM to 8 nM, was applied.

[4] = system: RPMI 8226 human Multiple Myeloma cancer cells; assay: Cell proliferation assay (CellTiter-Glo) in RPMI 8226; format: cell-based; settings: for IC50: Homo sapiens
Protocol: as §1, §2
The cells were plated at 50000 cells/well in 96 well plates in triplicates, and treated with compound for 72 hrs prior to the measurement (FIG. 12). The following “dose matrix”, everolimus: 8 dose, 3×, 500 nM to 0.23 nM, Compound A: 8 dose, 2×, 1 μM to 8 nM, was applied.

[5] = system: SK-BR3 Human Breast Cancer cells; assay: Cell proliferation assay (CellTiter-Glo) in SK-BR3; format: cell-based; settings: for IC50: Homo sapiens, SK-BR-3
Protocol: as §1
The cells were plated at 2000 cells/well in 96 well plates in triplicates, and treated with compound for 72 hrs prior to the measurement. The following dose matrix, everolimus: 8 dose, 2×, […] to 15 nM, Compound A: 8 dose, 2×, 2 μM to 15 nM, was applied.

[6] = system: MDA-MB-361 Human Breast Cancer cells; assay: Cell proliferation assay (CellTiter-Glo) in MDA-MB-361; format: cell-based; settings: for IC50: Homo sapiens
Protocol: as §1
The cells were plated at 2000 cells/well in […] in triplicates, and treated with compound for 72 hrs prior to the measurement. The following “dose matrix”, everolimus: 8 dose, 2×, 2000 nM to 15 nM, Compound A: 8 dose, 2×, 2 μM to 15 nM, was applied.

[7] = system: six cell lines from various tissue lineages; assay: Antiproliferative effect of combinations, summary over six cell lines; format: cell-based, human; settings: depends on the cell types
Protocol: as §1
Method for calculating the effect of the Combination: To evaluate the everolimus and Compound A combination effect in a non-bias way and to identify synergistic effect at all possible concentrations, the combination studies were conducted with a “dose matrix”, where a combination is tested in all possible permutations of serially-diluted everolimus and Compound A single agent doses, in all combination assays, compounds were applied simultaneously. Single agent dose responding curves, IC50, IC90, and the Synergy are all analyzed using Chalice software (CombinatoRx, Cambridge, Mass.). […] Deviations from dose additivity can be assessed visually on an Isobologram or numerically With a Combination Index. […]

PI3K/mTOR = settings: cited from earlier work
[8] = with trace amount (picomolar) of everolimus
[9] = single agent, RPMI 8226, 72 hrs
[10] = single agent, SK-BR3, 72 hrs, read-out: IC50, inhibition of cell growth
[11] = single agent, MDA-MB-361, 72 hrs

IC50 ([1]; Homo sapiens, MFE-296, single agent, read-out: IC50, inhibition of cell growth): 78 nM
IC50 ([2]; Homo sapiens, single agent, 72 hrs, read-out: IC50, inhibition of cell growth): 5 nM
IC90 ([3]; Homo sapiens, GA-10, 72 h, single agent, GA-10, 72 hrs, read-out: IC90, inhibition of cell growth): 250 nM
IC90 ([3]; Homo sapiens, GA-10, concomitant everolimus, GA-10, read-out: IC90 for Compound A, cell growth): 16 nM
IC50 ([3]; Homo sapiens, single agent, GA-10, 72 hrs, read-out: IC50, inhibition of cell growth): ~25 nM
IC90 ([3]; single agent, GA-10, 72 hrs, read-out: IC90, inhibition of cell growth): ~300 nM
IC50 ([4]; concomitant everolimus, RPMI 8226, read-out: IC50 for Compound A, cell growth): 16 nM
IC50 ([4]; single agent, RPMI 8226, 72 hrs, read-out: IC50, inhibition of cell growth): ~125 nM
IC50 ([5]; concomitant everolimus, SK-BR3, read-out: IC50 for Compound A, cell growth): < 15 nM
IC50 [5, 10]: ~31 nM
IC50 ([6]; concomitant everolimus, MDA-MB-361, read-out: IC50 for Compound A, cell growth): < 15 nM
IC50 ([6]; single agent, MDA-MB-361, 72 hrs, read-out: IC50, inhibition of cell growth): ~60 nM
SMILES: Cn1c(=O)n(-c2ccc(C(C)(C)C#N)cc2)c2c3cc(-c4cnc5ccccc5c4)ccc3ncc21 [Compound A, 2-methyl-2-[4-(3-methyl-2-oxo-8-quinolin-3-yl-2,3-dihydro-imidazo[4,5-c]quinolin-1-yl)-phenyl]-propionitrile]
full effective dose of Compound A ([1]; Compound A alone): 250 nM
Amax [1]: 0.79
full effective dose of Compound A [1, 8]: close to sub-nanomolar range
full effective dose amount of Compound A ([2]; Compound A alone): > 64 nM
Amax ([2]; single agent, 72 hrs): 0.69
full effective dose amount of Compound A [2, 8]: close to nanomolar or sub-nanomolar range
full effective dose amount of Compound A ([3]; Compound A alone, GA-10): > 250 nM
Amax ([3]; single agent, GA-10, 72 hrs): 1
full effective dose amount of Compound A ([3]; with trace amount (sub-nanomolar) of everolimus, GA-10): 16 to 62 nM
full effective dose amount of Compound A ([4]; Compound A alone, RPMI 8226): > 125 nM
Amax [4, 9]: 0.7
full effective dose amount of Compound A ([4]; with trace amount (sub-nanomolar) of everolimus, RPMI 8226): 16 to 62 nM
full effective dose range of Compound A ([5]; Compound A alone, SK-BR3): 120 nM
Amax ([5]; single agent, SK-BR3, 72 hrs): 0.67
full effective dose range of Compound A ([5]; with low dose everolimus, SK-BR3): < 15 nM
full effective dose range of Compound A ([6]; Compound A alone, MDA-MB-361): 120 nM
Amax [6, 11]: 0.81
full effective dose range of Compound A ([6]; with low dose everolimus, MDA-MB-361): < 15 nM
enhancement of the potency of Compound A by everolimus [7]: 5-100 fold
concentration at which mTOR inhibition predominates (PI3K/mTOR; low concentration): less than 100 nmol/L
concentration at which dual PI3K/mTOR inhibition is observed (PI3K/mTOR; relatively higher concentrations): approximately 500 nmol/L

IC50 [5, 10]: < 15 nM
SMILES: CO[C@H]1C[C@@H]2CC[C@@H](C)[C@@](O)(O2)C(=O)C(=O)N2CCCC[C@H]2C(=O)O[C@H]([C@H](C)C[C@@H]2CC[C@@H](OCCO)[C@H](OC)C2)CC(=O)[C@H](C)/C=C(\C)[C@@H](O)[C@@H](OC)C(=O)[C@H](C)C[C@H](C)/C=C/C=C/C=C/1C [everolimus, 40-O-(2-hydroxyethyl)-rapamycin, reference compound]
Amax [1]: 0.6
Amax ([2]; single agent, 72 hrs): 0.3
Amax ([3]; single agent, GA-10, 72 hrs): 0.3
Amax [4, 9]: 0.15
Amax ([5]; single agent, SK-BR3, 72 hrs): 0.50
Amax [6, 11]: < 0.50

Reference: patent US20130178479A1, “PHARMACEUTICAL COMBINATIONS” (NOVARTIS AG, priority 2010, published 2013)
